Laboratory results: the CheMixHub viscosity set

Experiment: xn = mol fraction of the nth substance listed

CCCCCCC + CO
298.15 K
Settings	viscosity [mPa·s]
101 kPa, x1 = 0.01	0.535
101 kPa, x1 = 0.02	0.5317
101 kPa, x1 = 0.03	0.5293
101 kPa, x1 = 0.04	0.5277
101 kPa, x1 = 0.05	0.5257
101 kPa, x1 = 0.06	0.5246
101 kPa, x1 = 0.08	0.5247
101 kPa, x1 = 0.09	0.5214
101.33 kPa, x2 = 0.0171	0.401
101.33 kPa, x2 = 0.0593	0.401
101.33 kPa, x2 = 0.0865	0.404
101.33 kPa, x2 = 0.1148	0.403
101.33 kPa, x2 = 0.9043	0.548
101.33 kPa, x2 = 0.9241	0.549
101.33 kPa, x2 = 0.9474	0.552
101.33 kPa, x2 = 0.9653	0.554
101.33 kPa, x2 = 0.9765	0.553

CCCCCCCC + CO
298.15 K, 101.33 kPa
Settings	viscosity [mPa·s]
x1 = 0.0147	0.553
x2 = 0.0367	0.536
x2 = 0.0682	0.547
x2 = 0.0725	0.548
x2 = 0.0933	0.555
x2 = 0.1159	0.563
x2 = 0.9531	0.556
x2 = 0.9687	0.554

CCCCCO + CO
298.15 K, 101.33 kPa
Settings	viscosity [mPa·s]
x2 = 0.1748	2.71
x2 = 0.2198	2.528
x2 = 0.327	2.143
x2 = 0.4302	1.813
x2 = 0.5186	1.57
x2 = 0.5951	1.372
x2 = 0.652	1.236
x2 = 0.7911	0.932
x2 = 0.8761	0.77

O=[N+]([O-])c1ccccc1 + CO
viscosity [mPa·s]
Settings	298.15 K	303.15 K
101 kPa, x1 = 0.0148	0.5642	–
101 kPa, x2 = 0.0719	1.698	–
101 kPa, x2 = 0.2616	1.416	–
101 kPa, x2 = 0.4788	1.161	–
101 kPa, x2 = 0.5889	1.036	–
101 kPa, x2 = 0.7539	0.8366	–
101 kPa, x2 = 0.8593	0.7113	–
101 kPa, x2 = 0.9296	0.6279	–
101.33 kPa, x1 = 0.0281	0.5789	0.541
101.33 kPa, x1 = 0.0612	0.611	0.5673
101.33 kPa, x1 = 0.1003	0.6507	0.607
101.33 kPa, x1 = 0.1478	0.7156	0.6653
101.33 kPa, x1 = 0.2806	0.8769	0.81
101.33 kPa, x1 = 0.3909	1.006	0.9279
101.33 kPa, x1 = 0.5102	1.156	1.093
101.33 kPa, x1 = 0.5937	–	1.298
101.33 kPa, x1 = 0.8005	1.559	1.485
101.33 kPa, x1 = 0.8978	1.693	1.534

CCCCCO + COC(=O)OC
101.3 kPa
Settings	viscosity [mPa·s]
293.15 K, x2 = 0.0482	3.367
293.15 K, x2 = 0.0991	2.836
293.15 K, x2 = 0.1941	2.11
293.15 K, x2 = 0.2974	1.605
293.15 K, x2 = 0.3939	1.304
293.15 K, x2 = 0.4993	1.092
293.15 K, x2 = 0.6	0.939
293.15 K, x2 = 0.7013	0.81
293.15 K, x2 = 0.8013	0.704
293.15 K, x2 = 0.8915	0.635
293.15 K, x2 = 0.9503	0.619
298.15 K, x2 = 0.0457	2.905
298.15 K, x2 = 0.1016	2.46
298.15 K, x2 = 0.1979	1.88
298.15 K, x2 = 0.3057	1.441
298.15 K, x2 = 0.4024	1.179
298.15 K, x2 = 0.503	0.988
298.15 K, x2 = 0.5793	0.878
298.15 K, x2 = 0.7034	0.739
298.15 K, x2 = 0.8003	0.655
298.15 K, x2 = 0.9018	0.597
298.15 K, x2 = 0.9494	0.586
303.15 K, x1 = 0.0192	0.542
303.15 K, x2 = 0.0539	2.488
303.15 K, x2 = 0.0906	2.228
303.15 K, x2 = 0.1979	1.66
303.15 K, x2 = 0.2613	1.416
303.15 K, x2 = 0.3902	1.066
303.15 K, x2 = 0.4928	0.89
303.15 K, x2 = 0.5918	0.759
303.15 K, x2 = 0.6923	0.661
303.15 K, x2 = 0.792	0.601
303.15 K, x2 = 0.8943	0.56
313.15 K, x2 = 0.0467	1.972
313.15 K, x2 = 0.1037	1.678
313.15 K, x2 = 0.2514	1.161
313.15 K, x2 = 0.3005	1.046
313.15 K, x2 = 0.3996	0.876
313.15 K, x2 = 0.5052	0.75
313.15 K, x2 = 0.6059	0.659
313.15 K, x2 = 0.7024	0.596
313.15 K, x2 = 0.8053	0.54
313.15 K, x2 = 0.9051	0.502
313.15 K, x2 = 0.9651	0.494

CCCCCCCCCCCCCC + COC(=O)c1ccccc1
101 kPa
Settings	viscosity [mPa·s]
298.15 K, x1 = 0.0359	1.787
298.15 K, x1 = 0.0603	1.763
298.15 K, x1 = 0.0869	1.742
298.15 K, x1 = 0.114	1.723
298.15 K, x1 = 0.1429	1.706
298.15 K, x1 = 0.1751	1.695
298.15 K, x1 = 0.2075	1.686
298.15 K, x1 = 0.2786	1.675
298.15 K, x1 = 0.3166	1.672
298.15 K, x1 = 0.3592	1.673
298.15 K, x1 = 0.4082	1.68
298.15 K, x1 = 0.4539	1.688
298.15 K, x1 = 0.5114	1.7
298.15 K, x1 = 0.5687	1.718
298.15 K, x1 = 0.6228	1.743
298.15 K, x1 = 0.6938	1.782
298.15 K, x1 = 0.7735	1.842
298.15 K, x1 = 0.8501	1.905
308.15 K, x1 = 0.0334	1.486
308.15 K, x1 = 0.0663	1.471
308.15 K, x1 = 0.0869	1.464
308.15 K, x1 = 0.1156	1.452
308.15 K, x1 = 0.1423	1.444
308.15 K, x1 = 0.1737	1.436
308.15 K, x1 = 0.2082	1.428
308.15 K, x1 = 0.2405	1.422
308.15 K, x1 = 0.2806	1.418
308.15 K, x1 = 0.3218	1.415
308.15 K, x1 = 0.3558	1.415
308.15 K, x1 = 0.4082	1.42
308.15 K, x1 = 0.4482	1.426
308.15 K, x1 = 0.5073	1.438
308.15 K, x1 = 0.5627	1.455
308.15 K, x1 = 0.62	1.478
308.15 K, x1 = 0.6846	1.508
308.15 K, x1 = 0.7661	1.553
308.15 K, x1 = 0.8624	1.613
318.15 K, x1 = 0.0194	1.263
318.15 K, x1 = 0.0462	1.25
318.15 K, x1 = 0.071	1.242
318.15 K, x1 = 0.1011	1.231
318.15 K, x1 = 0.1287	1.223
318.15 K, x1 = 0.1619	1.213
318.15 K, x1 = 0.193	1.205
318.15 K, x1 = 0.2311	1.198
318.15 K, x1 = 0.267	1.193
318.15 K, x1 = 0.3111	1.189
318.15 K, x1 = 0.3471	1.186
318.15 K, x1 = 0.3979	1.187
318.15 K, x1 = 0.4448	1.189
318.15 K, x1 = 0.5017	1.196
318.15 K, x1 = 0.5526	1.206
318.15 K, x1 = 0.6171	1.222
318.15 K, x1 = 0.6828	1.244
318.15 K, x1 = 0.7602	1.276
318.15 K, x1 = 0.8353	1.314
